Experimental data published in US11690860B2, “Treatment of HCV infected patients with cirrhosis” (Atea Pharmaceuticals, Inc., priority 2018, dated 2023).
“Also recorded” adds a separate entry of the source. Read-outs that look alike come from different tables or passages of the source.

Assay: Plasma pharmacokinetics of Compound 1 and metabolite 1-7 (LC-MS/MS) in Parts C, D and E
Assay type: in vivo, human
Experimental: Doses were administered as the Compound 2 salt base. The free base Compound 1 equivalent is often given in parenthesis.
Part C was a randomized, double-blind, placebo-controlled MAD study divided into three cohorts. […] The dose escalation only proceeded following satisfactory review of the data.
HCV-infected patients were treatment-naïve with HCV RNA ≥5 log 10 IU/mL. HCV RNA was quantified using COBAS® AmpliPrep TaqMAN® v2.0 with LLQ of 15 IU/mL. Plasma drug levels were measured using LC-MS/MS. […] Cirrhosis was confirmed by prior liver biopsy or Fibroscan >12.5 kPa. […] Mean ages of enrolled subjects were 44, 39, and 56 years in the non-cirrhotic GT1b 600 mg dose cohort, non-cirrhotic GT3 cohort, and the cirrhotic cohort, respectively.
Plasma levels of metabolite 1-7 were measured using LC-MS/MS.

[1] = Part C, 150 to 600 mg Compound 2

Question: Which “PK in cirrhotic compared with non-cirrhotic subjects” value (600 mg QD of Compound 2, Parts C/D vs Part E) does the source give for `C[C@@]1(F)[C@H](O)[C@@H](CO)O[C@H]1n1cnc2c(=O)[nH]c(N)nc21` [Metabolite 1-7, 2-amino-9-((2R,3R,4R,5R)-3-fluoro-4-hydroxy-5-(hydroxymethyl)-3-methyltetrahydrofuran-2-yl)-1,9-dihydro-6H-purin-6-one] here?
Answer: Its value is “similar; also recorded: comparable”.

Question: What about the “time at which steady state was reached” value (NC subjects, based on metabolite 1-7 trough levels) of the same molecule?
Answer: The value was “after the third or fourth dose; also recorded: day 3 or 4”.

Question: And the “higher trough upon reaching steady state” value (Part C)?
Answer: The value was 50%-60%.

Question: And the “time of peak formation after dosing” value (Part C)?
Answer: The value was “approximately 6 hours”.

Question: What about the “dose proportionality of plasma exposure (peak and total)” value [1] of the same molecule?
Answer: The value was “dose proportional from 150 to 300 mg and less than dose proportional from 300 mg to 600 mg”.

Question: What about the “dose proportionality of trough levels” value [1] of the same molecule?
Answer: Its value is “mostly dose proportional”.

Question: What about the “AUC Day 1 (AUC, for Metabolite 1-7)” value (Part C, NC GT1b, 150 mg/d Compound 2 QD, n=6) of the same molecule?
Answer: The value was 800 ± 213 ng/mLxh.

Question: What about the “AUC Day 1 (AUC, for Metabolite 1-7)” value (Part C, NC GT1b, 300 mg/d Compound 2 QD, n=6) of the same molecule?
Answer: The value was 1414 ± 220 ng/mLxh.

Question: And the “AUC Day 1 (AUC, for Metabolite 1-7)” value (Part C, NC GT1b, 600 mg/d Compound 2 QD, n=6)?
Answer: The value was 2204 ± 486 ng/mLxh.

Question: What about the “C24 h Day 1” value (Part C, NC GT1b, 600 mg/d Compound 2 QD, n=6, trough after the first dose) of the same molecule?
Answer: Its value is 27.5 ± 5.21 ng/mL.

Question: What about the “AUC Day 1 (AUC, for Metabolite 1-7)” value (Part D, NC GT3, 600 mg/d Compound 2 QD, n=6) of the same molecule?
Answer: Its value is 2253 ± 595 ng/mLxh.

Question: And the “C24 h Day 1” value (Part D, NC GT3, 600 mg/d Compound 2 QD, n=6, trough after the first dose)?
Answer: Its value is 30.1 ± 10.9 ng/mL.

Question: What about the “AUC Day 1 (AUC, for Metabolite 1-7)” value (Part E, Child-Pugh A cirrhotic, 600 mg/d Compound 2 QD, n=6) of the same molecule?
Answer: Its value is 2625 ± 873 ng/mLxh.

Question: What about the “C24 h Day 1” value (Part E, Child-Pugh A cirrhotic, 600 mg/d Compound 2 QD, n=6, trough after the first dose) of the same molecule?
Answer: Its value is 41.6 ± 12.9 ng/mL.

Question: And the “steady state plasma trough level” value (cirrhotic patients, 600 mg of Compound 2)?
Answer: Its value is 45.7 ng/mL.

Question: And the AUC (human, plasma, 150 mg, AUC of metabolite 1-7, range for the dose, 150 mg Compound 2 QD 7 days (FIG. 7))?
Answer: The AUC was 397 to 1430 ng·h/mL.

Question: And the AUC (human, plasma, 300 mg, AUC of metabolite 1-7, range for the dose, 300 mg Compound 2 QD 7 days (FIG. 7))?
Answer: Its AUC is 1300 to 2580 ng·h/mL.

Question: What about the AUC (human, plasma, 600 mg, AUC of metabolite 1-7, range for the dose, 600 mg Compound 2 QD 7 days (FIG. 7)) of the same molecule?
Answer: The AUC was 2250 to 5380 ng·h/mL.

Question: And the AUC (human, plasma, 600 mg, metabolite 1-7 exposure (AUC) achieved, 600 mg Compound 2 QD, all subjects, cirrhotic or non-cirrhotic)?
Answer: The AUC was greater than 2000 ng·h/mL.

Question: And the concentration at 24 h (human, plasma, oral, 150 mg/d, Part C, NC GT1b, 150 mg/d Compound 2 QD, n=6, read-out: C24 h Day 1)?
Answer: The concentration at 24 h was 8.08 ± 3.48 ng/mL.

Question: And the Cmax (human, plasma, oral, 150 mg/d, Part C, NC GT1b, 150 mg/d Compound 2 QD, n=6, read-out: Cmax Day 1)?
Answer: Its Cmax is 75.6 ± 15.4 ng/mL.

Question: What about the concentration at 24 h (human, plasma, oral, 150 mg/d, steady state = mean of C24 at 72, 96, 120, 144 and 168 h, Part C, NC GT1b, 150 mg/d Compound 2 QD, n=6, read-out: C24 h SS) of the same molecule?
Answer: The concentration at 24 h was 12.8 ± 4.45 ng/mL.

Question: What about the Cmax (human, plasma, oral, 150 mg/d, steady state, Part C, NC GT1b, 150 mg/d Compound 2 QD, n=6, read-out: Cmax SS) of the same molecule?
Answer: The Cmax was 81.1 ± 33.9 ng/mL.

Question: And the half-life (human, plasma, oral, 150 mg/d, steady state, Part C, NC GT1b, 150 mg/d Compound 2 QD, n=6, read-out: T1/2 SS (converted))?
Answer: The half-life was 12.5 h.

Question: What about the Cmax (human, plasma, oral, 300 mg/d, Part C, NC GT1b, 300 mg/d Compound 2 QD, n=6, read-out: Cmax Day 1) of the same molecule?
Answer: The Cmax was 123 ± 16.6 ng/mL.

Question: What about the concentration at 24 h (human, plasma, oral, 300 mg/d, steady state = mean of C24 at 72, 96, 120, 144 and 168 h, Part C, NC GT1b, 300 mg/d Compound 2 QD, n=6, read-out: C24 h SS) of the same molecule?
Answer: The concentration at 24 h was 26.1 ± 7.56 ng/mL.

Question: And the Cmax (human, plasma, oral, 300 mg/d, steady state, Part C, NC GT1b, 300 mg/d Compound 2 QD, n=6, read-out: Cmax SS)?
Answer: The Cmax was 220 ± 203 ng/mL.

Question: What about the half-life (human, plasma, oral, 300 mg/d, steady state, Part C, NC GT1b, 300 mg/d Compound 2 QD, n=6, read-out: T1/2 SS (converted)) of the same molecule?
Answer: Its half-life is 24.5 h.

Question: What about the Cmax (human, plasma, oral, 600 mg/d, Part C, NC GT1b, 600 mg/d Compound 2 QD, n=6, read-out: Cmax Day 1) of the same molecule?
Answer: Its Cmax is 197 ± 57.1 ng/mL.

Question: What about the concentration at 24 h (human, plasma, oral, 600 mg/d, Part C, NC GT1b, 600 mg/d Compound 2 QD, n=6, trough after the first dose, read-out: C24 h Day 1) of the same molecule?
Answer: Its concentration at 24 h is 27.5 ng/mL.

Question: What about the Cmax (human, plasma, oral, 600 mg/d, Part D, NC GT3, 600 mg/d Compound 2 QD, n=6, read-out: Cmax Day 1) of the same molecule?
Answer: Its Cmax is 195 ± 42.9 ng/mL.

Question: What about the concentration at 24 h (human, plasma, oral, 600 mg/d, Part D, NC GT3, 600 mg/d Compound 2 QD, n=6, trough after the first dose, read-out: C24 h Day 1) of the same molecule?
Answer: Its concentration at 24 h is 30.1 ng/mL.

Question: And the Cmax (human, plasma, oral, 600 mg/d, Part E, Child-Pugh A cirrhotic, 600 mg/d Compound 2 QD, n=6, read-out: Cmax Day 1)?
Answer: The Cmax was 201 ± 68.1 ng/mL.

Question: What about the concentration at 24 h (human, plasma, oral, 600 mg/d, Part E, Child-Pugh A cirrhotic, 600 mg/d Compound 2 QD, n=6, trough after the first dose, read-out: C24 h Day 1) of the same molecule?
Answer: Its concentration at 24 h is 41.6 ng/mL.

Question: What about the concentration at 24 h (human, plasma, oral, 600 mg/d, steady state = mean of C24 at 72, 96, 120, 144 and 168 h, Part C, NC GT1b, 600 mg/d Compound 2 QD, n=6, read-out: C24 h SS) of the same molecule?
Answer: The concentration at 24 h was 46.9 ± 15.5 ng/mL.

Question: What about the concentration at 24 h (human, plasma, oral, 600 mg/d, steady state = mean of C24 at 72, 96, 120, 144 and 168 h, Part D, NC GT3, 600 mg/d Compound 2 QD, n=6, read-out: C24 h SS) of the same molecule?
Answer: Its concentration at 24 h is 37.8 ± 11.4 ng/mL.

Question: And the concentration at 24 h (human, plasma, oral, 600 mg/d, steady state = mean of C24 at 72, 96, 120, 144 and 168 h, Part E, Child-Pugh A cirrhotic, 600 mg/d Compound 2 QD, n=6, read-out: C24 h SS)?
Answer: The concentration at 24 h was 69.9 ± 18.5 ng/mL.

Question: What about the Cmax (human, plasma, oral, 600 mg/d, steady state, Part C, NC GT1b, 600 mg/d Compound 2 QD, n=6, read-out: Cmax SS) of the same molecule?
Answer: The Cmax was 233 ± 42.9 ng/mL.

Question: What about the half-life (human, plasma, oral, 600 mg/d, steady state, Part C, NC GT1b, 600 mg/d Compound 2 QD, n=6, read-out: T1/2 SS (converted)) of the same molecule?
Answer: Its half-life is 28.9 h.

Question: What about the Cmax (human, plasma, oral, 600 mg/d, steady state, Part D, NC GT3, 600 mg/d Compound 2 QD, n=6, read-out: Cmax SS) of the same molecule?
Answer: Its Cmax is 263 ± 104 ng/mL.

Question: What about the half-life (human, plasma, oral, 600 mg/d, steady state, Part D, NC GT3, 600 mg/d Compound 2 QD, n=6, read-out: T1/2 SS (converted)) of the same molecule?
Answer: The half-life was 27.9 h.

Question: And the half-life (human, plasma, oral, 600 mg/d, steady state, Part E, Child-Pugh A cirrhotic, 600 mg/d Compound 2 QD, n=6, read-out: T1/2 SS (converted))?
Answer: Its half-life is 24.4 h.

Question: What about the Tmax (human, plasma, oral, 600 mg/d, steady state, Part E, Child-Pugh A cirrhotic, 600 mg/d Compound 2 QD, n=6, read-out: Tmax SS) of the same molecule?
Answer: Its Tmax is 6 h.

Question: And the half-life (human, plasma, oral, Part C, read-out: half-life)?
Answer: The half-life was 13 to 30 h.

Question: And the “food effect on total and trough exposure” value (in vivo)?
Answer: Its value is “No food effect”.

Question: What about the “AUC SS (AUC, for Metabolite 1-7)” value (steady state, Part C, NC GT1b, 150 mg/d Compound 2 QD, n=6) of the same molecule?
Answer: The value was 962 ± 409 ng/mLxh.

Question: What about the “AUC SS (AUC, for Metabolite 1-7)” value (steady state, Part C, NC GT1b, 300 mg/d Compound 2 QD, n=6) of the same molecule?
Answer: Its value is 1828 ± 453 ng/mLxh.

Question: What about the “AUC SS (AUC, for Metabolite 1-7)” value (steady state, Part C, NC GT1b, 600 mg/d Compound 2 QD, n=6) of the same molecule?
Answer: Its value is 2839 ± 572 ng/mLxh.

Question: And the “AUC SS (AUC, for Metabolite 1-7)” value (steady state, Part D, NC GT3, 600 mg/d Compound 2 QD, n=6)?
Answer: The value was 3117 ± 1048 ng/mLxh.

Question: What about the “AUC SS (AUC, for Metabolite 1-7)” value (steady state, Part E, Child-Pugh A cirrhotic, 600 mg/d Compound 2 QD, n=6) of the same molecule?
Answer: The value was 3569 ± 1214 ng/mLxh.

Question: What about the “time at which steady state was reached” value (subjects with cirrhosis) of the same molecule?
Answer: The value was “day 5; also recorded: after the fifth dose”.
